Columns and labels:
[1] = system: 786-O cells; test: in vitro cell viability bioassay measuring cell metabolic activity (CellTiterGlo); type: cell-based, human; details: for IC20: ED20 (or lower, based on clinically attainable plasma concentrations), highest dose for combinatorial screening; for EC50: 786-0, dose that inhibited 50% of cell viability vs control, 72 h treatment, read-out: ED50 (the source's name)
Description: Seeding density was 2-10×10^3cells/well, depending on the cell line's growth characteristics such that the control cells approach confluency at the time of the assay readout. Subsequently, cell viability was assessed using the CellTiterGlo® luminescence assay (Promega, Madison, Wis., USA) and cell viability was reported as the luminescence signal in the treated wells normalized to the signal in the DMSO treated control wells. Dose-response curves and IC50 values were determined in Graphpad Prism® using a four-parameter non-linear fit of the log transformed dose data of each compound.

[2] = system: 786-O cells; test: mitosis live cell imaging (SiR-tubulin); type: cell-based, human; details: single drug alone
Description: In order to test whether C2 treatment affects cell division, this process was monitored by live cell imaging. 786-O cells were treated with 0.1% DMSO in the cell culture medium (CTRL) or C2 and stained with the live cell dye SiR-tubulin (microtubule marker) to label the mitotic spindle, monitor mitotic progression and detect any cytokinesis failure. All experiments were performed in the presence of Valspodar (4 μM), a multi-drug pump inhibitor that prevented SiR-tubulin removal from the cell (this concentration of Valspodar had no effect on the efficacy of C2). Live cells were recorded for 24 hours at a temporal resolution of 3 minutes (FIG. 7A).
20 points were taken per condition.

[3] = system: COLO-205 cells; test: cell metabolic activity assay (CellTitre-Glo), CRC line; type: cell-based; details: COLO-205, CIN and high centrosome numbers
Description: C2 and the individual drugs present in C2 were assayed in a cell metabolic activity assay (CellTitre-Glo) where the bioluminescence was detected, to the following cell panel: two MIN (microsatellite instability) cell lines (HCT-116 and DLD1), two CIN (chromosomal instability) cell lines (SW480 and SW620), COLO205 (CIN and high centrosome numbers), HT29 (CIN and replication stress induced centriole dis-engagement), CCD841 (non-malignant colon cell line; negative control) and 786-O (renal carcinoma cell line; positive control).

SMILES | IC20 ([1]; Homo sapiens, 786-0, 72 h) | EC50 ([1]; Homo sapiens) | IC20 [1] | effect on mitosis duration [2] | killing / toxicity (cell metabolic activity) [3]
Cn1c(=O)n(-c2ccc(C(C)(C)C#N)cc2)c2c3cc(-c4cnc5ccccc5c4)ccc3ncc21 [BEZ-235] | 20 nM | 0.09 µM | – | – | –
CC(=O)Nc1ccc(C(=O)Nc2ccccc2N)cc1 [CI-994, 4-(Acetylamino)-N-(2-aminophenyl)benzamide] | 1000 nM | 11.5 µM | – | – | –
Cc1[nH]c2ccccc2c1CCNCc1ccc(/C=C/C(=O)NO)cc1 [LBH-589] | 2 nM | 0.01 µM | – | – | –
O=C(CCCCCCC(=O)Nc1ccccc1)NO [SAHA] | – | – | 1000 nM | – | –
Cc1cc(Nc2cc(N3CCN(C)CC3)nc(Sc3ccc(NC(=O)C4CC4)cc3)n2)[nH]n1 [VX-680] | 650 nM | 33 µM | – | – | –
CNC(=O)c1ccccc1Sc1ccc2c(/C=C/c3ccccn3)n[nH]c2c1 [axitinib] | 200 nM | – | – | – | –
Cc1nc(Nc2ncc(C(=O)Nc3c(C)cccc3Cl)s2)cc(N2CCN(CCO)CC2)n1 [dasatinib, N-(2-chloro-6-methylphenyl)-2-[[6-[4-(2-hydroxyethyl)piperazin-1-yl]-2-methylpyrimidin-4-yl]amino]-1,3-thiazole-5-carboxamide] | 50 nM | 0.1 µM | – | – | –
C#Cc1cccc(Nc2ncnc3cc(OCCOC)c(OCCOC)cc23)c1 [erlotinib, N-(3-Ethynylphenyl)-6,7-bis(2-methoxyethoxy) quinazolin-4-amine] | 2000 nM | 6.6 µM | – | small delay in mitosis | –
CNC(=O)c1cc(Oc2ccc(NC(=O)Nc3ccc(Cl)c(C(F)(F)F)c3)cc2)ccn1 [sorafenib] | 10 nM | – | – | – | –
O=C(CCCCCCC(=O)Nc1ccc([C@H]2O[C@@H](CSc3nc(-c4ccccc4)c(-c4ccccc4)o3)C[C@@H](c3ccc(CO)cc3)O2)cc1)NO [tubacin, N-(4-{(2R,4R,6S)-4-{[(4,5-diphenyl-1,3-oxazol-2-yl)sulfanyl]methyl}is [4-(hydroxymethyl)phenyl]-1,3-dioxan-2-yl}phenyl)-N′-hydroxyoctanediamide] | 2000 nM | 6 µM | – | small delay in mitosis | partial toxicity

From patent US20220373535A1, “METHODS OF IDENTIFICATION OF SYNERGISTIC ANTI-CANCER MULTIDRUG COMBINATIONS AND USES THEREOF” (UNIVERSITE DE GENEVE, priority 2019, published 2022)
